# Experimental data from article PMC9143880, “Improving Antimicrobial Activity and Physico-Chemical Properties by Isosteric Replacement of 2-Aminothiazole with 2-Aminooxazole” (Pharmaceuticals, 2022).
# Read-outs that look alike come from different tables or passages of the source.
# How the values were obtained:
# [1] = tested on: Staphylococcus aureus subsp. aureus CCM 4223 (ATCC 29213); assay: Antibacterial microdilution broth (EUCAST); type: cell-based; conditions: Staphylococcus aureus, internal quality control, 24 h
# [2] = tested on: Staphylococcus aureus subsp. aureus (MRSA) CCM 4750 (ATCC 43300); assay: Antibacterial microdilution broth (EUCAST); type: cell-based; conditions: Staphylococcus aureus, internal quality control, 24 h
# [3] = tested on: Staphylococcus epidermidis CCM 4418 (ATCC 12228); assay: Antibacterial microdilution broth (EUCAST); type: cell-based; conditions: Staphylococcus epidermidis, internal quality control, 24 h
# [4] = tested on: Enterococcus faecalis CCM 4224 (ATCC 29212); assay: Antibacterial microdilution broth (EUCAST); type: cell-based; conditions: Enterococcus faecalis, internal quality control, 24 h
# [5] = tested on: Escherichia coli CCM 3954 (ATCC 25922); assay: Antibacterial microdilution broth (EUCAST); type: cell-based; conditions: Escherichia coli, internal quality control, 24 h
# [6] = tested on: Klebsiella pneumoniae CCM 4415 (ATCC 10031); assay: Antibacterial microdilution broth (EUCAST); type: cell-based; conditions: internal quality control, 24 h
# [7] = tested on: Acinetobacter baumannii DSM 30007 (ATCC 19606); assay: Antibacterial microdilution broth (EUCAST); type: cell-based; conditions: Acinetobacter baumannii, internal quality control, 24 h
# [8] = tested on: Pseudomonas aeruginosa CCM 3955 (ATCC 27853); assay: Antibacterial microdilution broth (EUCAST); type: cell-based; conditions: Pseudomonas aeruginosa, internal quality control, 24 h
# [9] = tested on: Mycobacterium tuberculosis H37Ra ITM-M006710 (ATCC 9431); assay: Antimycobacterial MIC, microdilution broth / Alamar Blue (resazurin); type: cell-based; conditions: Mycobacterium tuberculosis, 120 h, Middlebrook 7H9, resazurin after 120 h; read-out: Mtb H37Ra MIC
# [10] = tested on: M. smegmatis DSM 43465 (ATCC 607); assay: Antimycobacterial MIC, microdilution broth / resazurin; type: cell-based; conditions: Mycolicibacterium smegmatis; resazurin after 48 h; read-out: MIC M. smegmatis
# [11] = tested on: M. aurum DSM 43999 (ATCC 23366); assay: as above; type: cell-based; conditions: Mycolicibacterium aurum, read-out: MIC M. aurum
# [12] = tested on: M. avium DSM 44156 (ATCC 25291); assay: as above; type: cell-based, Mycobacterium avium; conditions: Mycobacterium avium; resazurin after 96 h; read-out: MIC M. avium
# [13] = tested on: M. kansasii DSM 44162 (ATCC 12478); assay: as above; type: cell-based; conditions: Mycobacterium kansasii; resazurin after 96 h; read-out: MIC M. kansasii
# [14] = tested on: Mtb H37Rv CNCTC My 331/88 (ATCC 27294); assay: microbe, parasite or virus in culture; type: cell-based; conditions: Mycobacterium tuberculosis, read-out: MIC Mtb H37Rv
# [15] = tested on: Mtb IZAK (MDR clinical isolate); assay: microbe, parasite or virus in culture; type: cell-based; conditions: Mycobacterium tuberculosis, read-out: MIC Mtb IZAK
# [16] = tested on: Mtb MATI (MDR clinical isolate); assay: microbe, parasite or virus in culture; type: cell-based; conditions: Mycobacterium tuberculosis, read-out: MIC Mtb MATI
# [17] = tested on: Mtb laboratory ID MATI; type: cell-based, Mycobacterium tuberculosis; conditions: MDR strain MATI, CLSI breakpoints 2021
# [18] = tested on: Mtb laboratory ID IZAK; type: cell-based, Mycobacterium tuberculosis; conditions: MDR strain IZAK, CLSI breakpoints 2020
# [19] = tested on: M. tuberculosis H37Rv; conditions: whole cell, cited from earlier work
# [20] = 95% growth inhibition, 530 nm, read-out: MIC (spectrophotometric detection)
# [21] = naked eye, read-out: MIC (visual detection)
compound,measurement,setting,value
"CNC(C)C1CCC(N)C(OC2C(N)CC(N)C(OC3OCC(C)(O)C(NC)C3O)C2O)O1 (stereo not shown) [gentamicin, reference compound]",MIC,[1]; [20],1 µg/mL
same,MIC,[1]; [21],0.5 µg/mL
same,MIC,[2]; [20],> 8 µg/mL
same,MIC,[2]; [21],> 8 µg/mL
same,MIC,[3]; [20],0.0625 µg/mL
same,MIC,[3]; [21],0.0625 µg/mL
same,MIC,[4]; [20],> 8 µg/mL
same,MIC,[4]; [21],> 8 µg/mL
same,MIC,[5]; [20],1 µg/mL
same,MIC,[5]; [21],1 µg/mL
same,MIC,[6]; [20],0.5 µg/mL
same,MIC,[6]; [21],0.5 µg/mL
same,MIC,[7]; [20],8 µg/mL
same,MIC,[7]; [21],8 µg/mL
same,MIC,[8]; [20],0.5 µg/mL
same,MIC,[8]; [21],0.5 µg/mL
"O=C(O)c1cn(C2CC2)c2cc(N3CCNCC3)c(F)cc2c1=O [CIP, ciprofloxacin, reference compound]",MIC,[9],0.25 µg/mL
same,MIC,[10],0.125 µg/mL
same,MIC,[11]; resazurin after 72 h,0.0156 µg/mL
same,MIC,[12],0.25 to 0.5 µg/mL
same,MIC,[13],0.25 µg/mL
same,MIC,[14],0.2 µg/mL
"NNC(=O)c1ccncc1 [INH, isoniazid, reference compound]",MIC,[9],0.25 µg/mL
same,MIC,[10],15.6 to 31.2 µg/mL
same,MIC,[11]; 72 h,3.91 µg/mL
same,MIC,[12],1000 µg/mL
same,MIC,[13],3.12 to 6.25 µg/mL
same,MIC,[14],0.39 µg/mL
same,MIC,[15],12.5 µg/mL
same,MIC,[16],12.5 µg/mL
same,Susceptibility,[17],resistant
"CO[C@H]1/C=C/O[C@@]2(C)Oc3c(C)c(O)c4c(O)c(c(/C=N/N5CCN(C)CC5)c(O)c4c3C2=O)NC(=O)/C(C)=C\C=C\[C@H](C)[C@H](O)[C@@H](C)[C@@H](O)[C@@H](C)[C@H](OC(C)=O)[C@@H]1C [RIF, rifampicin]",MIC,[10],12.5 µg/mL
same,MIC,[11]; resazurin after 72 h,0.39 µg/mL
same,MIC,[13],0.025 µg/mL
same,Concentration (susceptibility profile),[18],> 8 µg/mL
same,Susceptibility,[18],resistant
same,Concentration (susceptibility profile),[17],> 8 µg/mL
same,Susceptibility,[17],resistant
O=C(Nc1nc(-c2ccc(F)cc2)cs1)c1cncc(Cl)n1 [A],MIC,[19]; recalculated to µM,2.3 µM
same,MIC,[19],0.78 µg/mL
